These results are taken from ChEMBL document CHEMBL1201862, “PubChem BioAssay data set” (2004).

Test [1] deals with Eukaryotic translation initiation factor 4H (Homo sapiens, UniProt Q15056). The test can be described thus: eIF4H inhibition in translation initiation, SAR follow-up (AID 435011). Type of test: functional.
The target of test [2] is Polyadenylate-binding protein 1 (Homo sapiens, UniProt P11940). Nature of the test: PABP inhibition in translation initiation, SAR follow-up (AID 435018). Type of test: functional.
Sequence of Polyadenylate-binding protein 1 (P11940 whole entry): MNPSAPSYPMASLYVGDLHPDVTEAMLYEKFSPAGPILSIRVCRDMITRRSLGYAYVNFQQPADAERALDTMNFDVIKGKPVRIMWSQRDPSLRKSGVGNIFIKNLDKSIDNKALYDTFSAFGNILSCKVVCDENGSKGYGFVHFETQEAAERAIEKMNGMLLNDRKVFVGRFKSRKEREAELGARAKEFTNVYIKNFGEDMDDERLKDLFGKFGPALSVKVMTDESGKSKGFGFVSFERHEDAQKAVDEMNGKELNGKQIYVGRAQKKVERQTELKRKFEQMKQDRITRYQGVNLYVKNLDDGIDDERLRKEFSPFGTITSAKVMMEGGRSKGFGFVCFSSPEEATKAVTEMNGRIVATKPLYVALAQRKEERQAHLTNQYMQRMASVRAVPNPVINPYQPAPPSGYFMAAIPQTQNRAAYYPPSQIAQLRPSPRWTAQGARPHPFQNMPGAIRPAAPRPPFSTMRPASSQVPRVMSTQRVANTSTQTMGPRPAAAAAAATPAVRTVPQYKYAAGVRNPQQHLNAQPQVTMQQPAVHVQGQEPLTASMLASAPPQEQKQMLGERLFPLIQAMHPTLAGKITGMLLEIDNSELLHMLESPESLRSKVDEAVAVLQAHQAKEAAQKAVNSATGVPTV
Test [3] concerns the target T1, Heat shock factor protein 1 (Mus musculus, UniProt P38532).
T1 sequence (P38532 whole entry): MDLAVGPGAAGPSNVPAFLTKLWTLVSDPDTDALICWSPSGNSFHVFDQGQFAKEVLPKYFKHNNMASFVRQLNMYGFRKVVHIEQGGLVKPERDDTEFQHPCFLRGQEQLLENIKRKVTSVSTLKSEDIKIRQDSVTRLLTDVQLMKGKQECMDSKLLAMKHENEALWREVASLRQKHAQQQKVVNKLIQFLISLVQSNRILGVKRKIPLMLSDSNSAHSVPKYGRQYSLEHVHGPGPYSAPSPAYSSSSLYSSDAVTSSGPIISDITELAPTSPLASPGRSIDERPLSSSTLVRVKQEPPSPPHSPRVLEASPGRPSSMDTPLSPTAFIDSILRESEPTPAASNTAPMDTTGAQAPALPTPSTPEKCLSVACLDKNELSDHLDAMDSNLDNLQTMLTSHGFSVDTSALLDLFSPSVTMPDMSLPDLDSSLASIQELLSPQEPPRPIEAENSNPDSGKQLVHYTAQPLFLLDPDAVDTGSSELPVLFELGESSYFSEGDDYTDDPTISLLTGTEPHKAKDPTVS
The test can be described thus: inhibition of MG132-induced HSE-luciferase signal, confirmation, cell-based, NIH3T3, luminescence, dose retest (AID 2382).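 Also: NIH3T3 fibroblasts with HSF1-driven luciferase reporter stressed by proteasome inhibitor MG132; luminescence from HSF1-driven luciferase expression after 8 hours of MG132 stress.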 In kind it is functional.

For test [4], the target named is Scavenger receptor class B member 1 (Mus musculus, UniProt Q61009). Nature of the test: inhibitors of SR-BI mediated HDL lipid uptake, dose response, ldlA[mSR-BI] cells, fluorescence, cherry pick (AID 493194).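 Also: cellular uptake of fluorescent DiI-labeled HDL measured as cell fluorescence.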 Type of test: functional, cell-based.
Sequence of Scavenger receptor class B member 1 (Q61009 whole entry): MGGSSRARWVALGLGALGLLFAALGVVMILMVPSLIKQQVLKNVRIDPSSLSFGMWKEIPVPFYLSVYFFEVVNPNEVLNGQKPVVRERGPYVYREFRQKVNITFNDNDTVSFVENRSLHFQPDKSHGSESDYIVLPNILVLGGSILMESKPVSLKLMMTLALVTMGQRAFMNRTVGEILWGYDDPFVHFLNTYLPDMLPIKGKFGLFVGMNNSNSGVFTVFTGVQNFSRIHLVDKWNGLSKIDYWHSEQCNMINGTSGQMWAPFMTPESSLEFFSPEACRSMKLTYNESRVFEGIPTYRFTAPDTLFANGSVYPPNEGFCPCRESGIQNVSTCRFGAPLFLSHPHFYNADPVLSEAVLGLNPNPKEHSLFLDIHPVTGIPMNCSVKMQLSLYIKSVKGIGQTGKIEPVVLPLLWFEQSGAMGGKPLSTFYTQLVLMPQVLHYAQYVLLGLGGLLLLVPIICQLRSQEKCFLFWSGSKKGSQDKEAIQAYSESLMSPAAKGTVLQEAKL
Test [5] in a line: NIH-3T3 fibroblast cytotoxicity, dose response, cytotoxicity control, cell-based, fluorescence, Alamar Blue, secondary assay (AID 2327).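 Also: NIH-3T3 mouse fibroblasts cultured with fluconazole at 8 µg/mL.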 Type of test: functional.
Test [6] can be described thus: C. albicans growth with fluconazole, confirmation, fluorescence, retest (AID 2467). In kind it is functional, cell-based.
Test [7] addresses T2, Mannose-6-phosphate isomerase (Homo sapiens, UniProt P34949).
T2 sequence (P34949 whole entry): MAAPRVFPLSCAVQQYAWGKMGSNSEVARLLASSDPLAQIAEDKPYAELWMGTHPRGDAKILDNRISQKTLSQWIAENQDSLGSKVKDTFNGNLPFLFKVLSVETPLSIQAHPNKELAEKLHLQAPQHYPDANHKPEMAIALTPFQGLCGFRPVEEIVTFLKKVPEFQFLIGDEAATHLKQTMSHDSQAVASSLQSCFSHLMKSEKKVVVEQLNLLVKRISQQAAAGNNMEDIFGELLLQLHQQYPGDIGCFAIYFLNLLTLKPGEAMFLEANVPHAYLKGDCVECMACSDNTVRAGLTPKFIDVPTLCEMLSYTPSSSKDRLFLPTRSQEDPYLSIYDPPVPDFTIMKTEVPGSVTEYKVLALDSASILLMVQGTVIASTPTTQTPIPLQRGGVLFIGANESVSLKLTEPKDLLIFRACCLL
The test can be described thus: inhibitors of human PMI, primary screen, biochemical, fluorescence intensity, coupled assay (AID 1209).

Test [8] deals with T2, Mannose-6-phosphate isomerase. The test can be described thus: human PMI inhibitors, high substrate, primary screen, biochemical, fluorescence intensity, high mannose 6-phosphate (AID 1220).
In test [9] the target is Beta-galactosidase (Escherichia coli, UniProt Q8VNN2). The test can be described thus: beta-galactosidase enzyme inhibitors and activators, dose response, artefact control for CCR6 antagonist project, biochemical, E. coli enzyme, set 3 (AID 504712). Type of test: functional.
Sequence of Beta-galactosidase (Q8VNN2 whole entry): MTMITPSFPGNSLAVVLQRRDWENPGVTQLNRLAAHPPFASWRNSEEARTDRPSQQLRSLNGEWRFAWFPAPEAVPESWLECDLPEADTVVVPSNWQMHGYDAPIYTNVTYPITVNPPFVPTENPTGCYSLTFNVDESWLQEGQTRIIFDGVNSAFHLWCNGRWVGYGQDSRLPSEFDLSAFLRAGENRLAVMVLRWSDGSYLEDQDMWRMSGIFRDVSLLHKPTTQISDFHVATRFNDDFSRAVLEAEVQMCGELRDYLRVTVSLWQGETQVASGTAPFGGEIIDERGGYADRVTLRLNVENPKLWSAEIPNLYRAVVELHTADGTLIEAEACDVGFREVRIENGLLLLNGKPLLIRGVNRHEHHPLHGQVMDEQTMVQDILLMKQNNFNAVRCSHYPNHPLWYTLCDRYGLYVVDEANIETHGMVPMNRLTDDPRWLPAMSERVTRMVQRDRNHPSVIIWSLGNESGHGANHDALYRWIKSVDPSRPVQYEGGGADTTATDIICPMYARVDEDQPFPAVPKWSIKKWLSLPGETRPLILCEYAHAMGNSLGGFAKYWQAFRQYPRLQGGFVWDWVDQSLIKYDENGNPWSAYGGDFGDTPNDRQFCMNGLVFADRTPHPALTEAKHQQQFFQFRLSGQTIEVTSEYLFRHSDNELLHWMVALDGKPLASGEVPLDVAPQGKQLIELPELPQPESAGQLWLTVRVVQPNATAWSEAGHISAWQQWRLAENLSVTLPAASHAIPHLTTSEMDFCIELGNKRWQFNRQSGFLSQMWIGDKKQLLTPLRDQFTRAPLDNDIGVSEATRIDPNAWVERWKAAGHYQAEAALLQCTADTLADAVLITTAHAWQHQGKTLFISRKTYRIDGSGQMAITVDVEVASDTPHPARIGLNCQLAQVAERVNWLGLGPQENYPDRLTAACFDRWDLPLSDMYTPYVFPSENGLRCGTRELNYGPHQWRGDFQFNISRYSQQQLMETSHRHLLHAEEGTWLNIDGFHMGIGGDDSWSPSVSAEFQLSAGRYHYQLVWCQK
Test [10] has as its target Nonstructural protein 1 (Influenza A virus, UniProt Q194T2). In kind it is functional, Influenza A virus (A/California/07/2009(H1N1)).
The target of test [11] is Trypsin (Sus scrofa, UniProt P00761). Nature of the test: porcine trypsin inhibitors, dose response, selectivity assay for Rce1 protease inhibitor project, biochemical, quenched peptide fluorescence, cherry-pick (AID 488789).
Sequence of Trypsin (P00761 whole entry): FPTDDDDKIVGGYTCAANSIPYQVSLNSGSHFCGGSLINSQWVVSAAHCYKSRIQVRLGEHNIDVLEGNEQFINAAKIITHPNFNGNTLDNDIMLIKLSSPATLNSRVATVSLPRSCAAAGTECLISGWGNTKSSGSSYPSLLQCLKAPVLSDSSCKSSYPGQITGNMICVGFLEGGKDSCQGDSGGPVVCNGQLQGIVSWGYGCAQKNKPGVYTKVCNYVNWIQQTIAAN
Test [12] can be described thus: Cytotoxicity screening for potential Inhibitors of Bacterial Capsule Biogenesis. [Related pubchem assays (depositor defined):AID488970]. In kind it is functional.
For test [13], the system named is HeLa. Nature of the test: HeLa cell cytotoxicity, dose response, cytotoxicity control for MITF activator project, CellTiter-Glo luminescence, cherry-pick samples (AID 540259). Type of test: functional, cell-based. The conditions noted are these: Homo sapiens. (In ATP-based viability assays light output follows the ATP content of the culture.)

Activity calls are given as the source filed them.

Sequence of Nonstructural protein 1 (Q194T2 whole entry): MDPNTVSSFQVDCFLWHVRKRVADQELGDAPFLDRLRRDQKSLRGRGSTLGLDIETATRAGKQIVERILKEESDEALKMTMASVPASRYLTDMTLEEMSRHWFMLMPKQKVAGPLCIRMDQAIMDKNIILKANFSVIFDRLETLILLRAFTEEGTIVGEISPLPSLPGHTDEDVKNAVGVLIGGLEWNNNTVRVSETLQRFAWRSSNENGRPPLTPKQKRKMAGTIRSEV

Turning to `O=C(CSc1ccc(-c2ccco2)nn1)Nc1ccccc1`, the concentration for half-maximal inhibition (IC50) (usually the concentration that inhibits the measured activity by half) in test [1] is 84.4 µM (active); in test [2], > 100 µM (inactive).
With `CCOc1ccccc1/C=C/c1onc(C)c1S(=O)(=O)N1CCC(C(=O)NC(C)(C)C)CC1`, in test [3], the half-maximal effective concentration (EC50) (in general, the concentration that produces a half-maximal response) is reported as > 195 µM (not active). In test [4], the AC50 (commonly the midpoint of the concentration-response curve, whichever way the signal moves) is 0.05 µM (active).
Regarding `Cc1n[nH]c(=S)n(NC(=O)CC(=O)Nn2c(=S)[nH]nc(C)c2=O)c1=O`, the EC50 is > 150 µM (inactive) in [5] and 4.66 µM (active) in [6]. The IC50 in test [7] is > 50 µM (not active); in test [8] it was > 50 µM (not active); in [9] it was > 66.6 µM (inactive); in test [10], 6.42 µM (active).
Consider `Cc1ccc(O)c(CNc2cnc3ccccc3c2)c1`, for which the AC50 in test [11] is 12.8 µM (active).
As to `CCc1ccc(NC(=O)c2ccc3nc(N)sc3c2)cc1`, the CC50 – broadly, the concentration at which the toxic effect on the cells reaches its halfway point – in [12] was 54 µM (active). In test [13], the AC50 is 47.4 µM (active).
